Results on four compounds are retold here after PMC6943619, “Synthesis and Pharmacological Evaluation of Hybrids Targeting Opioid and Neurokinin Receptors” (Molecules, 2019).

In assay [1] the target is T1, human opioid receptor MOR (Homo sapiens, UniProt P35372).
T1 construct: purchased PerkinElmer (Krakow, Poland); host or cells: CHO cell membranes
The experiment in a line: Radioligand binding assay, displacement of [3H]DAMGO. Particulars: displacement of [3H]DAMGO from membranes of CHO cells transfected with human MOR, 50 mM Tris/HCl pH 7.4, 0.5% BSA, peptidase inhibitors, 2 h at 25 °C, mean ± SEM, n ≥ 3. On the procedure: (§1) A radioligand binding assay was performed to determine the opioid receptor (OR) binding affinities of the novel analogs using commercially available membranes of Chinese hamster ovary cells (CHO) transfected with human recombinant ORs. [^3H]DAMGO, [^3H]deltorphin-2, and [^3H]U-69593 were used as the radioligands for MOR, DOR, and KOR, respectively. Tyr-[D-Lys-Phe-Phe-Asp]NH2 (1) was used as a reference opioid compound. […] None of them acquired significant DOR affinity.
(§2) To determine the affinity of peptide analogs to respective receptors, competition binding experiments were performed, as described in detail elsewhere.
(§3) Commercial membranes of CHO cells stably expressing either human ORs or NK1 receptor were used. [^3H]DAMGO, [^3H]deltorphin-2, and [^3H]U-69593 were employed as the competing radioligands for MOR, DOR, and KOR, respectively, while [^3H][Sar^9, Met(O2)^11]SP was utilized for the NK1 receptor. Membranes were incubated in a 0.5 mL volume of 50 mM Tris/HCl (pH = 7.4), 0.5% bovine serum albumin (BSA), with a number of peptidase inhibitors (bacitracin, bestatin, captopril) and various concentrations of radioligands for 2 h at 25 °C. Nonspecific binding was assessed in the presence of […] naloxone for ORs or SP for NK1 receptor.
(§4) The pharmacological terminology adopted in this paper is consistent with International Union of Basic and Clinical Pharmacology (IUPHAR) recommendations. Concentration–response curves were analyzed by nonlinear regression using Graph Pad Prism 6.0 (La Jolla, CA, USA). […]. […] Concentration–response curves were fitted with the four-parameter logistic nonlinear regression model (1) Effect=baseline+Emax−baseline/1+10^logEC50−X·n where X is the agonist concentration and n is the Hill coefficient. Ligand efficacy was expressed as intrinsic activity (α) calculated as a ratio of the peptide Emax to the Emax of the standard agonist (Supplementary Materials, Figure S7). […]. All statistical analyses were performed using Graph Pad Prism 6.0 (La Jolla, CA, USA). Differences between groups were analyzed with one-way ANOVA and a post hoc multiple comparison by the Student–Newman–Keuls test. A probability level of 0.05 or smaller was used to indicate statistical significance.

The target of assay [2] is T2, human NK1 (Homo sapiens, UniProt P25103). Description: Radioligand binding assay, displacement of [3H][Sar9, Met(O2)11]SP. On the set-up: purchased PerkinElmer (Krakow, Poland); host or cells: CHO cell membranes. Particulars: displacement of [3H][Sar9, Met(O2)11]SP from membranes of CHO cells transfected with human NK1 receptor; 50 mM Tris/HCl pH 7.4, 0.5% BSA, peptidase inhibitors, 2 h at 25 °C; mean ± SEM, n ≥ 3; SEM. Here is the method: The binding assay was also used to examine the affinity of the synthesized hybrids for NK1 in commercial membranes of CHO cells stably expressing human NK1.
as §2
(§5) Commercial membranes of CHO cells stably expressing either human ORs or NK1 receptor were used. […] Membranes were incubated in a 0.5 mL volume of 50 mM Tris/HCl (pH = 7.4), 0.5% bovine serum albumin (BSA), with a number of peptidase inhibitors (bacitracin, bestatin, captopril) and various concentrations of radioligands for 2 h at 25 °C.
(§6) The pharmacological terminology adopted in this paper is consistent with International Union of Basic and Clinical Pharmacology (IUPHAR) recommendations. Concentration–response curves were analyzed by nonlinear regression using Graph Pad Prism 6.0 (La Jolla, CA, USA). […] Concentration–response curves were fitted with the four-parameter logistic nonlinear regression model (1) Effect=baseline+Emax−baseline/1+10^logEC50−X·n where X is the agonist concentration and n is the Hill coefficient. Ligand efficacy was expressed as intrinsic activity (α) calculated as a ratio of the peptide Emax to the Emax of the standard agonist (Supplementary Materials, Figure S7). […] All statistical analyses were performed using Graph Pad Prism 6.0 (La Jolla, CA, USA). Differences between groups were analyzed with one-way ANOVA and a post hoc multiple comparison by the Student–Newman–Keuls test. A probability level of 0.05 or smaller was used to indicate statistical significance.
Background: In a radioligand displacement assay an active substance lowers the binding of a labelled ligand.

The target of a further assay is T3, DOR (Homo sapiens, UniProt P41143).
T3 construct: expressed in transfected cells; host or cells: CHO cells (University of Ferrara), co-expressing GαqG66Di5
The experiment in a line: Calcium mobilization functional assay, agonist mode. The format is cell-based. Particulars: CHO cells co-expressing DOR and GαqG66Di5, n = 5; for DOR α ± SEM: efficacy (intrinsic activity), Emax relative to DPDPE, mean ± SEM; for EC50: read-out: DOR pEC50 (CL95%) (converted). (A change in cytosolic calcium serves as a functional read-out for many receptors and channels.)

The target in assay [3] is T4, human opioid receptor DOR (Homo sapiens, UniProt P41143).
T4 construct: purchased PerkinElmer (Krakow, Poland); host or cells: CHO cell membranes
Description: Radioligand binding assay, displacement of [3H]deltorphin-2. Particulars: displacement of [3H]deltorphin-2 from membranes of CHO cells transfected with human DOR, 50 mM Tris/HCl pH 7.4, 0.5% BSA, peptidase inhibitors, 2 h at 25 °C, mean ± SEM, n ≥ 3. On the procedure:
A radioligand binding assay was performed to determine the opioid receptor (OR) binding affinities of the novel analogs using commercially available membranes of Chinese hamster ovary cells (CHO) transfected with human recombinant ORs. […] Tyr-[D-Lys-Phe-Phe-Asp]NH2 (1) was used as a reference opioid compound.
as §2, §5, §6

Assay [4] has as its target T2, human NK1. The experiment in a line: Calcium mobilization assay, inhibition response experiments against SP. Type of assay: cell-based. On the set-up: expressed in transfected cells; host or cells: CHO cells (gift of Prof. T. Costa, ISS, Rome). On the procedure:
Following aspiration of the loading solution and a washing step, serial dilutions of peptide stock solutions were added.
as §6

The target of assay [5] is T2, human NK1. The experiment in a line: Calcium mobilization functional assay, agonist mode, CHONK1 cells. Type of assay: cell-based. On the set-up: expressed in transfected cells; host or cells: CHO cells (gift of Prof. T. Costa, ISS, Rome). The following applies: for NK1 α ± SEM: efficacy (intrinsic activity), Emax relative to SP, CHONK1 cells.
Assay [6] concerns the target T5, human opioid receptor KOR (Homo sapiens, UniProt P41145).
T5 construct: purchased PerkinElmer (Krakow, Poland); host or cells: CHO cell membranes
Description: Radioligand binding assay, displacement of [3H]U-69593. Particulars: displacement of [3H]U-69593 from membranes of CHO cells transfected with human KOR, 50 mM Tris/HCl pH 7.4, 0.5% BSA, peptidase inhibitors, 2 h at 25 °C, mean ± SEM, n ≥ 3. Here is the method: as §1, §2, §3, §4

The next assay has as its target T6, human MOR (Homo sapiens, UniProt P35372).
T6 construct: expressed in transfected cells; host or cells: CHO cells (University of Ferrara), co-expressing Gαqi5
The experiment in a line: Calcium mobilization functional assay, agonist mode. The format is cell-based. Particulars: CHO cells co-expressing human MOR and Gαqi5, n = 5; for EC50: Fluo-4 AM calcium signal, read-out: MOR pEC50 (CL95%) (converted); for MOR α ± SEM: efficacy (intrinsic activity), Emax relative to EM-2, mean ± SEM.

Another assay deals with T7, human KOR (Homo sapiens, UniProt P41145).
T7 construct: expressed in transfected cells; host or cells: CHO cells (University of Ferrara), co-expressing Gαqi5
The assay is described as above. Type of assay: cell-based. Particulars: for KOR α ± SEM: efficacy (intrinsic activity), Emax relative to dynorphin A, mean ± SEM.

The mark [7] stands for this setting: CHO cells co-expressing human KOR and Gαqi5, Fluo-4 AM calcium signal, n = 5, read-out: KOR pEC50 (CL95%) (converted).
Where [8] appears, read: CHO cells co-expressing human KOR and Gαqi5, n = 5.

SMILES strings stand for the structures. Read-outs that look alike come from different tables or passages of the source. Where a SMILES comes first, the peptide text is derived from it. Bridges are numbered along the chain shown (N, C = ends). [ ]: non-standard residue; d: D form. Nle = CCCC[C@H](N)C(=O)O

T2 sequence (P25103 whole entry): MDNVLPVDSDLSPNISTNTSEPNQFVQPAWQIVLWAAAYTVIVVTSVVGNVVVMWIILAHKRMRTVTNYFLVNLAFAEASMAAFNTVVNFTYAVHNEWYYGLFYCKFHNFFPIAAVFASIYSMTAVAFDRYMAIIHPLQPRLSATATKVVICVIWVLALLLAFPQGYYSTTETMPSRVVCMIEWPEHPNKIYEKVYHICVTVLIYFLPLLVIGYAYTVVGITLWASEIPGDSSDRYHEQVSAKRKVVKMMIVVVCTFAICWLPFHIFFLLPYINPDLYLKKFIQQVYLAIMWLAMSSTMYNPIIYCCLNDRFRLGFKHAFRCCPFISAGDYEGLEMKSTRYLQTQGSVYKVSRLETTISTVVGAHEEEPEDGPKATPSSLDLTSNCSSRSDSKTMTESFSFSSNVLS
T4 sequence (P41143 whole entry): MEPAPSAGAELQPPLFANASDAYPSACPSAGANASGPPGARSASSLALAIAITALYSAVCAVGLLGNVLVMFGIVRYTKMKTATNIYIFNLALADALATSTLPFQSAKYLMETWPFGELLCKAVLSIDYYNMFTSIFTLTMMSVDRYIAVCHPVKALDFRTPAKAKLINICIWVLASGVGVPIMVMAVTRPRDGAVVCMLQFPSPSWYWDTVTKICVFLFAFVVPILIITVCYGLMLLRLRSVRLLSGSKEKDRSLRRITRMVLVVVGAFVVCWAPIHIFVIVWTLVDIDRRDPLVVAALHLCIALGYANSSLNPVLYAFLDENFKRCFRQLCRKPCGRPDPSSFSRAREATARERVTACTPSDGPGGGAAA
T3 sequence (P41143 whole entry): as above
T5 sequence (P41145 whole entry): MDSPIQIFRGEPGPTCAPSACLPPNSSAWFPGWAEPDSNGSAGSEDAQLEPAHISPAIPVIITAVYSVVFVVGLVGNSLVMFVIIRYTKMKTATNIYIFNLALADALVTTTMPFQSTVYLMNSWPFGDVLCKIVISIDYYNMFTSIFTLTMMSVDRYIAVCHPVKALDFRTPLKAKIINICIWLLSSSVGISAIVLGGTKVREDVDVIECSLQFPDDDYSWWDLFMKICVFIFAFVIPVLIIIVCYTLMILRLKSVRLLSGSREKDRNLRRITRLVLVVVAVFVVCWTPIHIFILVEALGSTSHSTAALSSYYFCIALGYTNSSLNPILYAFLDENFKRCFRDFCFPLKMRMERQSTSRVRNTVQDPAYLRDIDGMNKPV
T7 sequence (P41145 whole entry): as above
T1 sequence (P35372 whole entry): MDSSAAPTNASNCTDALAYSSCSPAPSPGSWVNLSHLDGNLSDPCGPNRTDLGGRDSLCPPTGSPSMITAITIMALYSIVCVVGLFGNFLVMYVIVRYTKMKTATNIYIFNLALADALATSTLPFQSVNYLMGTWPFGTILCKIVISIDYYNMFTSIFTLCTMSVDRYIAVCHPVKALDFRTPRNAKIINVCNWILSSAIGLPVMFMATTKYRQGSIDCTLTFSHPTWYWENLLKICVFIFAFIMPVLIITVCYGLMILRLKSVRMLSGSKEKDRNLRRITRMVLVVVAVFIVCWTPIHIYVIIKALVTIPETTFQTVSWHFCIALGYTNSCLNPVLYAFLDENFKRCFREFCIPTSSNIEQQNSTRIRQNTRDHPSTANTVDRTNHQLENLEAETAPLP
T6 sequence (P35372 whole entry): as above

In the case of `CCCC[C@H](NC(=O)[C@H](CC(C)C)NC(=O)[C@@H](Cc1c[nH]c2ccccc12)NC(=O)[C@H](Cc1ccccc1)NC(=O)[C@@H](Cc1c[nH]c2ccccc12)NC(=O)[C@@H]1CC(=O)NCCCC[C@@H](NC(=O)[C@@H](N)Cc2ccc(O)cc2)C(=O)N[C@@H](Cc2ccccc2)C(=O)N[C@@H](Cc2ccccc2)C(=O)N1)C(N)=O` [compound 3, Tyr-[D-Lys-Phe-Phe-Asp]-D-Trp-Phe-D-Trp-Leu-Nle-NH2] (H-Y[dK]FFD[dW]F[dW]L[Nle]-NH2; lactam 2-5), the Ki in assay [1] came out at 0.0282 ± 0.00145 µM; at human NK1 [2], 0.0128 ± 0.00092 µM; in assay [3], 0.213 ± 0.00631 µM; in assay [6] it was 0.00285 ± 0.00044 µM. In addition, the “DOR pEC50 (CL95%)” value on DOR (Fluo-4 AM calcium signal) is recorded as “Crc incomplete”. In addition, at DOR, the “DOR α ± SEM” value is recorded as “Crc incomplete”. Moreover, the Kb at human NK1 [4] was 0.0234 µM. Further, the “NK1 pEC50 (CL95%)” value at human NK1 [5] (CHO cells expressing human NK1 (CHONK1), Fluo-4 AM calcium signal, N = 5) is on record as “Inactive”. The “NK1 α ± SEM” value on human NK1 [5] (N = 5) is reported as “Inactive”. Besides, the EC50 on human MOR is 0.174 µM; on human KOR (setting [7]), 0.00355 µM. Also, the “MOR α ± SEM” value turned out to be 0.72 on human MOR and 0.72 ± 0.04 on human MOR (SEM). The “KOR α ± SEM” value on human KOR (setting [8]) is reported as 1.05 ± 0.05.

For `CSCC[C@H](NC(=O)[C@H](CC(C)C)NC(=O)CNC(=O)[C@H](Cc1ccccc1)NC(=O)[C@@H]1CC(=O)NCCCC[C@@H](NC(=O)[C@@H](N)Cc2ccc(O)cc2)C(=O)N[C@@H](Cc2ccccc2)C(=O)N[C@@H](Cc2ccccc2)C(=O)N1)C(N)=O` [compound 6, Tyr-[D-Lys-Phe-Phe-Asp]-Phe-Gly-Leu-Met-NH2] (H-Y[dK]FFDFGLM-NH2; lactam 2-5), the Ki in assay [1] came to 0.00298 ± 0.00014 µM; on human NK1 [2] it was 2.33 ± 0.189 µM; in assay [3], 0.0287 ± 0.00101 µM; in assay [6], 0.0027 ± 0.00012 µM. For the same compound, the EC50 at DOR (Fluo-4 AM calcium signal) was 0.151 µM; at human NK1 [5], 0.776 µM; at human MOR it was 0.00912 µM; on human KOR (setting [7]), 0.00468 µM. Besides, on DOR (SEM), the “DOR α ± SEM” value turned out to be 0.65 ± 0.05. The “NK1 α ± SEM” value on human NK1 [5] (N = 5, SEM) amounted to 1.03 ± 0.05. The “MOR α ± SEM” value on human MOR (SEM) came out at 0.81 ± 0.05. Moreover, the “KOR α ± SEM” value at human KOR (setting [8]) is 0.92 ± 0.02.

On to `CSCC[C@H](NC(=O)[C@H](CC(C)C)NC(=O)CNC(=O)[C@@H]1CC(=O)NCCCC[C@@H](NC(=O)[C@@H](N)Cc2ccc(O)cc2)C(=O)N[C@@H](Cc2ccccc2)C(=O)N[C@@H](Cc2ccccc2)C(=O)N1)C(N)=O` [compound 7, Tyr-[D-Lys-Phe-Phe-Asp]-Gly-Leu-Met-NH2] (H-Y[dK]FFDGLM-NH2; lactam 2-5), for which the Ki in assay [1] turned out to be 0.00114 ± 0.00021 µM; on human NK1 [2], 8.13 ± 0.724 µM; in assay [3], 0.113 ± 0.0046 µM; in [6], 0.00089 ± 4e-05 µM. In addition, the EC50 was 0.363 µM at DOR (Fluo-4 AM calcium signal), 2.09 µM on human NK1 [5], 0.00204 µM at human MOR and 0.00158 µM on human KOR (setting [7]). Besides, the “DOR α ± SEM” value on DOR (SEM) was determined as 0.38 ± 0.04. For the same compound, the “NK1 α ± SEM” value at human NK1 [5] (N = 5, SEM) amounted to 0.99 ± 0.08. At human MOR (SEM), the “MOR α ± SEM” value was determined as 0.85 ± 0.05. Moreover, at human KOR (setting [8]), the “KOR α ± SEM” value is reported as 1.06 ± 0.06.

Consider `CSCC[C@H](NC(=O)[C@H](CC(C)C)NC(=O)CNC(=O)[C@H](Cc1ccccc1)NC(=O)[C@H](Cc1ccccc1)NC(=O)[C@@H]1CC(=O)NCCCC[C@@H](NC(=O)[C@@H](N)Cc2ccc(O)cc2)C(=O)N[C@@H](Cc2ccccc2)C(=O)N[C@@H](Cc2ccccc2)C(=O)N1)C(N)=O` [compound 5, Tyr-[D-Lys-Phe-Phe-Asp]-Phe-Phe-Gly-Leu-Met-NH2] (H-Y[dK]FFDFFGLM-NH2; lactam 2-5), for which the Ki came out at 0.0049 ± 0.00034 µM in [1], 0.0516 ± 0.0042 µM at human NK1 [2], 0.0966 ± 0.0038 µM in [3] and 0.0283 ± 0.00171 µM in assay [6]. Moreover, the EC50 was 0.389 µM on DOR (Fluo-4 AM calcium signal), 0.0158 µM on human NK1 [5] and 0.0676 µM on human KOR. The “DOR α ± SEM” value at DOR (SEM) is given as 0.50 ± 0.01. The “NK1 α ± SEM” value on human NK1 [5] (N = 5, SEM) is recorded as 1.11 ± 0.05. Also, the “MOR α ± SEM” value at human MOR (SEM) worked out at 0.86 ± 0.03. Also, the “KOR α ± SEM” value on human KOR (setting [8]) worked out at 0.64 ± 0.04.

Usually Ki stands for a measure of affinity in units of concentration, obtained from inhibition or displacement. Higher therefore signals weaker binding.
